According to patent US20150283095A1, “NANOPARTICLES WITH BIODEGRADABLE AND BIOCOMPATIBLE POLYMER PLGA, LOADED WITH THE DRUG FOR HUMAN USE PENTOXIFYLLINE” (UNIVERSIDAD DE SANTIAGO DE CHILE, priority 2012, published 2015):

Columns and labels:
[1] = system: primary cultures of activated microglia; details: LPS-activated microglia treated with propentofylline; cited from earlier work
monoarthritis = experiment: Monoarthritis chronic pain model (complete Freund's adjuvant), paw pressure test; assay type: in vivo, Sprague-Dawley rats; details: PTX administered for 10 days, effect up to 21 days
Procedure: Sprague-Dawley rats weighing approximately 100 g were used. This model was described by Butler (Butler et al, 1992). He was inoculated into the right paw (tibio-tarsal fourth) of rats with 50 uL of complete Freund's adjuvant containing 300 ug Mycobacterium butiricum. This injection produces a localized arthritis syndrome and found to be stable between four and six post-inoculation, weeks During this period there is an establishment of neurogenic pain and hyperalgesia, and this pain is held for more than two months period. Control rats were injected with the vehicle only Mycobacterium butiricum.
All doses of nanoparticles or free drugs were administered by intrathecal (it) in a maximum volume of […], dissolved in artificial cerebrospinal fluid (LCA: 1.3 mm CaCl2, KCl 2.8 mm, 0.9 mm MgCl2, NaHCO3 20 mM, 2.5 mM Na 2 HPO 7H2O, 125 mM NaCl). The injection i.t. it involves administration of the drug into the subarachnoid space between lumbar vertebrae L5 and L6 (Mestre et al, 1994) using a Hamilton syringe with a needle 26Gx1/2”. The entrance to the subarachnoid space evidenced by a slight movement in the tail of the rat, due to the mechanical stimulation of the needle to penetrate the spinal cord meninges. […]

Structure (SMILES): CCCn1cnc2c1c(=O)n(CCCCC(C)=O)c(=O)n2C [propentofylline, 3-methyl-1-(5-oxo-hexyl)-7-propylxanthine]
- production of tumor necrosis factor (TNF), IL-1β and radicals oxygen [1]: inhibition

Structure (SMILES): CC(=O)CCCCn1c(=O)c2c(ncn2C)n(C)c1=O [PTX, 3,7-dimethyl-1-(5-oxo-hexyl)xanthine]
- effect on threshold of pain, pressure test of the leg (monoarthritis): lowers the threshold of pain
